Measurements published in patent US9073954B2, “5-substituted benzimidazolium compounds” (Boehringer Ingelheim International GmbH, priority 2013, dated 2015).

Key:
[1] = biological target: T1, ENaC (Epithelial Sodium Channel) (Mus musculus, UniProt Q61180+Q9WU38+Q9WU39); assay: Ussing chamber: short circuit current in M-1 cells; type: cell-based; settings: Ussing chamber, mouse kidney M-1 cells, amiloride sensitive I_SC, apical application, 37° C.; read-out: IC50
T1 construct: Mouse kidney M-1 cells were cultivated in DMEM; endogenous in cells; host or cells: mouse kidney M-1 cells
T1 sequence (Q61180 1-699): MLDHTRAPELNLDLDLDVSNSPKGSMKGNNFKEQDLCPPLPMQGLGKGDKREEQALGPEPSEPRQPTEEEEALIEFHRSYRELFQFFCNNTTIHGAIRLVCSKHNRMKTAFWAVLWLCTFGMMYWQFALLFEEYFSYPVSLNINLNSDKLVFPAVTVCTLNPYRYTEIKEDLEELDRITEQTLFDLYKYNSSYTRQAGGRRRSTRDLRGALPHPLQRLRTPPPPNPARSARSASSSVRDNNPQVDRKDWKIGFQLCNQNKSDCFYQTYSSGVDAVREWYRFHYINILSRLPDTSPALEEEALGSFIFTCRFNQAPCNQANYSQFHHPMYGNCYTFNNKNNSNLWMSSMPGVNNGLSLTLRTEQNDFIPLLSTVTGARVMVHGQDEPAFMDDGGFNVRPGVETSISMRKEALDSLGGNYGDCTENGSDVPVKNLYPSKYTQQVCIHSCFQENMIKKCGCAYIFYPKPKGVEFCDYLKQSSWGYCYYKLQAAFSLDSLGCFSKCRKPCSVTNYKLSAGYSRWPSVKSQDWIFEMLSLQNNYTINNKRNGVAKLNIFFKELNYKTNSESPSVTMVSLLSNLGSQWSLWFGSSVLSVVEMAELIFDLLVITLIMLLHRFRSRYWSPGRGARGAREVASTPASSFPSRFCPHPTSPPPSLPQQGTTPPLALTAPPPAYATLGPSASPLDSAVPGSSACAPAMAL
T1 sequence (Q9WU38 1-638): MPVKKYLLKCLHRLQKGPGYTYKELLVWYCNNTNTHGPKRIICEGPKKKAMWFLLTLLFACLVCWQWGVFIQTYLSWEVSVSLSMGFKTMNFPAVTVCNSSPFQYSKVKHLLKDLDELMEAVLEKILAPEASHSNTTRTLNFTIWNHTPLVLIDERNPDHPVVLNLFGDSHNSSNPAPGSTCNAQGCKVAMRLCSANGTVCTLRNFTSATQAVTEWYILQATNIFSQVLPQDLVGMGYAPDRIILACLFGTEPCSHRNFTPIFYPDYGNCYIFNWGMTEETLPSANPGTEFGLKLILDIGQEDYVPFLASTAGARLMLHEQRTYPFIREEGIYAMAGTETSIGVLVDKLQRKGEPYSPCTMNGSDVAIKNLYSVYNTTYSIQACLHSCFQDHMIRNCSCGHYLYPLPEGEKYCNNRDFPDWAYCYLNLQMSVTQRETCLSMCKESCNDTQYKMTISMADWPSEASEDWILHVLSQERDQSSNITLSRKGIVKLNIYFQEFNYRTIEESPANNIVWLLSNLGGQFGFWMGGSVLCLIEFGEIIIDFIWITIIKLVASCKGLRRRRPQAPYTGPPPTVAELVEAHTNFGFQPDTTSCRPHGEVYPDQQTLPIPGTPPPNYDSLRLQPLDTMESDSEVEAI
T1 sequence (Q9WU39 1-655): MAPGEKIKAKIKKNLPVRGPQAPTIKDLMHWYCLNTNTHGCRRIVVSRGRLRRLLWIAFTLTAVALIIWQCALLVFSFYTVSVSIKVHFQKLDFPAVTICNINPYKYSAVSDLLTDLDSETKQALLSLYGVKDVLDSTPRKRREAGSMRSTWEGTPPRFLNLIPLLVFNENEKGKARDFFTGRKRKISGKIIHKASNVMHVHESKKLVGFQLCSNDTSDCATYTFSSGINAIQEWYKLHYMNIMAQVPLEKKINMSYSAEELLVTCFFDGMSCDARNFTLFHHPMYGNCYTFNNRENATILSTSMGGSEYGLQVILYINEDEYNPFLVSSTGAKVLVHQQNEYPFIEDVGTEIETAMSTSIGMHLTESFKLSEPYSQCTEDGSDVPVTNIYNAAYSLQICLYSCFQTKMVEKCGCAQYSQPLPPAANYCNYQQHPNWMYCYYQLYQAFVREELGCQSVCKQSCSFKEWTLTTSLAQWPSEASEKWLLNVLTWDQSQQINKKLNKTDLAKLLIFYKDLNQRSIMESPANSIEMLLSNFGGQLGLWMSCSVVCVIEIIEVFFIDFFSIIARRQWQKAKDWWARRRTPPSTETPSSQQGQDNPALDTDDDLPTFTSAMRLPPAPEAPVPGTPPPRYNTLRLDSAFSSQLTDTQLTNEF
Procedure: Mouse kidney M-1 cells were cultivated in DMEM containing 5% FCS and 5 μM dexamethasone for 10 to 12 days on polyester transwell filters. Filters were inserted into a teflon-coated well-plate which fit into the ussing chamber system. Prior to measurement the medium of M-1 cells was replaced with Caco-2 transport buffer (Invitrogen, Germany). During measurements, the Ussing chamber temperature was kept at 37° C. Short circuit currents (I_sc) were measured in the voltage-clamp mode with the software package Lab View for data acquisition and analysis. The transepithelial electrical resistance (TEER) was determined by the application of voltage steps of ±5 mV every 5 sec. Compounds were administered at a final concentration of 3 μM or at increasing concentrations (1-3-10 μM) to the apical solution. At the end of each experiment the amiloride sensitive I_SC was measured by adding 3 μM amiloride to the apical compartment. Results are expressed as inhibition in percent of the amiloride effect or as IC50.
With the example compounds given above, the following IC50 values were determined in the Ussing Chamber assay: […]

[2] = Permeability in CALU-3 cells; type: in vitro ADME; settings: human, CALU-3 monolayers, 10 μM compound, pH 7.4, 37° C.; for Papp A→B at 90 min, 10 μM: apical-to-basal; for Papp B→A at 90 min, 10 μM: basal-to-apical
Procedure: Permeability in CALU-3 Cells:
Permeability measurements across polarized, confluent CALU-3 cell monolayers grown on permeable filter supports are used to provide information on the potential of a compound to pass the lung epithelium. Apparent permeability coefficients (Papp) of the compounds across the CALU-3 cell monolayers are measured (pH 7.4, 37° C.) in apical-to-basal (AB) and basal-toapical (BA) transport direction.
CALU-3 cells (1-2×10^5 cells/1 cm^2 area) are seeded on filter inserts (Costar transwell polycarbonate filters, 0.4 μm pore size) and cultured (for 10-12 days DMEM) until tight monolayers are formed. Compounds of interest are dissolved in appropriate solvent (DMSO, 10 mM stock solution). Stock solutions are diluted with HTP-4 buffer (128.13 mM NaCl, 5.36 mM KC, 1 mM MgSO4, 1.8 mM CaCl2, 4.17 mM NaHCO3, 1.19 mM Na2HPO4×7H2O, 0.41 mM NaH2PO4xH2O, 15 mM HEPES, 20 mM glucose, 0.25% BSA, pH 7.4) to prepare the transport solutions (10 μM compound, final DMSO<=0.5%). The transport solution (TL) is applied to the apical or basolateral donor side for measuring A-B or B-A permeability (3 filter replicates), respectively. The receiver side contains the same buffer as the donor side. After 30 min of accommodation, samples are collected at the start t0=0 min and at the end of the experiment tn=90 min from the donor and at 0, 30, 60, and 90 min also from the receiver chamber. Volume removed is replenished by HTP-4 buffer. The compound concentration in the samples is measured by HPLC-MS/MS or scintillation counting. The permeability coefficient (Papp) and efflux ratio are calculated according to: Papp [cm/s]=(concentration receiver [nM]*volume receiver [mL]/time interval [sec])*(1/filter area)*(1/donor concentration [nM])
With example compounds given above, the following permeability values were determined in the CALU-3 cells assay: […]

| IC50 [1] [nM] | Papp A→B at 90 min, 10 μM [2] [×10⁻⁶ cm/s] | Papp B→A at 90 min, 10 μM [2] [×10⁻⁶ cm/s] | Structure (SMILES) |
| --- | --- | --- | --- |
| 0.4 | 0.2 | 0.2 | CCn1c(CNC(=O)c2nc(Cl)c(N)nc2N)[n+](C)c2cc(Cl)c(OCCOCCOC)cc21 [Example 3.8] |
| 0.4 | 0.1 | 0.2 | CCn1c(CNC(=O)c2nc(Cl)c(N)nc2N)[n+](CC)c2cc(F)c(C(=O)N3CCOCC3)cc21 [Example 3.12] |
| 2 | < 0.9 | 0.2 | CCn1c(CNC(=O)c2nc(Cl)c(N)nc2N)[n+](CC)c2ccc(CNC(=O)CN(C)C)cc21.[Cl-] [Example 7.1] |
